Key:
[1] = Rat hemorrhagic shock, normal saline resuscitation: blood gases, hematocrit, lactate, MAP; assay type: in vivo
Experimental: Animal Studies. Male Sprague-Dawley rats (340 to 380 g) (Envigo, Indianapolis, IN) were housed for at least 4 days in a room with controlled temperature (23±1° C.), humidity (50±10%) and light (6:00 A.M. to 6:00 P.M.) before being used. Food and water were made available continuously. Animal care and use for experimental procedures were approved by the Institutional Animal Care and Use Committee of the Midwestern University. All anesthetic and surgical procedures were in compliance with the guidelines established by the Animal Care Committee.
(§1) Determination of cardiovascular response. The animals were anesthetized with urethane dissolved in isotonic saline. Urethane was administered in a dose of 1.5 g per kg body weight via intraperitoneal injection. Urethane was selected as an anesthetic agent, because it produces long lasting (8-10 hours) anesthesia with minimal cardiovascular and respiratory system depression. It produces a level of surgical anesthesia characterized by preservation of cardiovascular reflexes (Maggi and Meli 1986). Briefly, anaesthetized rats were immobilized on a surgical board equipped with controlled heating pad. Blood PO2, Pco2 and pH, were maintained using a tracheotomy cannula connected to a rodent ventilator (Model 683, Harvard Apparatus Inc., Holliston, MA). MAP and HR were measured by cannulating the left femoral artery with pressure catheter SPR-320 (Millar Instruments), connected to the ML221 bridge amplifier (AD Instruments) through AEC-10C connector and the signals were acquired (1000 S^−1) using PowerLab 16/30 data acquisition system (Gulati et al. 2012; Pacher et al. 2008). A Perimed laser Doppler flow probe was placed in the renal medulla to measure blood perfusion and data was captured on PowerLab 16/30 data acquisition system. The left femoral vein was cannulated using PE 50 tubing (Clay Adams, Parsipanny, NJ) and secured for resuscitation.
Determination of arterial blood gases and base deficit. Baseline arterial blood pH, PO2, Pco2, Na^+, K^+ and lactate were monitored prior to induction of shock, 30 minutes after induction of shock, and 30 and 60 minutes following vehicle or centhaquin resuscitation. Blood samples (0.15 ml) were drawn from the arterial cannula using blood gas sampling syringes (Innovative Medical Technologies, Inc. Leawood, KS) and analyzed using a pHOx Ultra analyzer (Nova Biomedical Corporation, Waltham, MA). The base deficit was calculated using the formula (Davis et al. 1998; Paladino et al. 2008): SBD=0.9287×[HCO3^−−24.4+14.83×(pH-7.4)]
Induction of Hemorrhagic Shock. Hemorrhage was induced by withdrawing blood from the femoral artery at a rate of approximately 0.5 to 1 mL/min until a MAP of 35 mmHg was reached. This MAP was maintained for 30 minutes by further withdrawal of blood, if necessary. The hemorrhagic shock model used in the present study is a well-established rodent model of manageable pressure hemorrhage (Buehler et al. 2000; Gulati et al. 1997; Gulati and Sen 1998). The volume of blood loss was about approximately 8.0 ml in each rat and was similar in various groups, amounting to approximately 40% of the total blood. Measured hematocrit levels were similar in various groups. […]
(§2) Experimental design. […] Additional experiments were also carried out where the amount of norepinephrine (a very commonly used vasopressor during resuscitation) required to maintain MAP at 70 mmHg in normal saline (NS) or centhaquin (0.01 mg/kg) treated rats (volume equal to blood loss) was determined. […]

[2] = Renal medullary blood perfusion (laser Doppler) in hemorrhaged rats; assay type: in vivo, rat
Experimental: as §1, with “Blood PO2, Pco2 and pH, were maintained using a tracheotomy cannula connected to a rodent ventilator (Model 683, Harvard Apparatus Inc., Holliston, MA).” left out, “A Perimed laser Doppler flow probe was placed in the renal medulla to measure blood perfusion and data was captured on PowerLab 16/30 data acquisition system. The left femoral vein was cannulated using PE 50 tubing (Clay Adams, Parsipanny, NJ) and secured for resuscitation.” left out
Induction of Hemorrhagic Shock. […] Measured hematocrit levels were similar in various groups. […]
as §2

Cc1cccc(N2CCN(CCc3ccc4ccccc4n3)CC2)c1 [centhaquin, 2-[2-(4-(3-methyphenyl)-1-piperazinyl)]ethyl-quinoline]
effect on blood pH of hemorrhaged rats ([1]; centhaquin 0.01 and 0.10 mg/kg in normal saline): significantly prevented the reduction of pH | MAP post resuscitation ([1]; centhaquin 0.01 and 0.10 mg/kg, p<0.01): significant increase | blood lactate levels compared to the saline group ([1]; normal saline model): decrease | change in hematocrit after treatment ([1]; normal saline model): no change | effect on hemorrhage-induced decrease in pCO2 and increase in pO2 ([1]; resuscitation with centhaquin in normal saline): not affected | renal blood perfusion compared to equal volume of saline ([2]; hemorrhaged female rats): significantly improved | renal blood perfusion compared to equal volume of saline ([2]; hemorrhaged male rats, low doses of centhaquin): significantly improved
